Assay results: patent US7445939B2, “Stable liquid membranes for liquid phase microextraction” (Varian, Inc., priority 2004, dated 2008)

Key:
[1] = Weights of fibers with liquid membranes as a function of time and storing condition; format: physicochemical
[2] = Extraction ability and storage stability of supported liquid membranes on hollow fibers (in words); format: physicochemical; conditions: polypropylene fibers, after 30 days of storage at room temperature
Description: The liquid membrane was formed by dipping the hollow fiber into the organic solvent for 5 to 30 sec to allow the solvent to penetrate into the pores of the fiber. Then acceptor solution was introduced into the lumen of the fiber using a syringe. The acceptor solution was 10 mM HCl, having a pH of 2. Extraction ability was tested by immersing the hollow fibers with their supported liquid membranes into a sample vial containing 4 mL of a solution containing 5 basic drugs, at a pH of 12, with stirring, and allowing the analytes to equilibrate across the liquid membranes to the acceptor solution within (25 μl 10 mM HCl). After allowing the sample analytes sufficient time to reach equilibration with the acceptor solution, about 15 to 60 minutes, the acceptor solution was withdrawn from the hollow fibers, and the concentration of analytes was determined using capillary electrophoresis.
Experiments were performed using polypropylene and polysulfone hollow fibers, testing the effectiveness and stability of liquid membranes comprising fatty oils in the extraction of analytes from samples after storage of the fibers for 30 days prior to use. Supported liquid membranes were established on the hollow fibers using the procedures described in Example 1 above, but substituting the following oils for the organic solvents tested in Example 1: tributyrin, soya oil, or olive oil. […]

[3] = supported liquid membranes of WO 02/088672; cited from earlier work

CCCCCCCCCCCCOC(C)=O [DDA, dodecyl acetate]
Weight (mg) of fibers ([1]; DDA table, closed container, Day 0): 42.40 mg | Weight (mg) of fibers ([1]; DDA table, closed container, Day 3): 42.14 mg | Weight (mg) of fibers ([1]; DDA table, closed container, Day 10): 42.12 mg | Weight (mg) of fibers ([1]; DDA table, open to the air, Day 0): 45.94 mg | Weight (mg) of fibers ([1]; DDA table, open to the air, Day 2): 43.92 mg | Weight (mg) of fibers ([1]; DDA table, open to the air, Day 5): 41.70 mg

CCCC(=O)OCC(COC(=O)CCC)OC(=O)CCC [tributyrin]
Extraction performance [2]: extracted analytes

CCCCCCCCCCCCCC(=O)OC(C)=O [MA, myristoyl acetate]
Weight (mg) of fibers ([1]; MA table, closed container, Day 0): 38.76 mg | Weight (mg) of fibers ([1]; MA table, closed container, Day 4): 38.72 mg | Weight (mg) of fibers ([1]; MA table, open to the air, Day 0): 41.36 mg | Weight (mg) of fibers ([1]; MA table, open to the air, Day 4): 40.90 mg

CCCCCCCCOc1ccccc1[N+](=O)[O-] [NPOE, nitropheyloctyl ether]
Membrane lifetime [3]: 10 to 20 days
